According to US20240229101A1, “METHOD FOR DETECTING INTRACELLULAR ACTIVITY OF CYP ENZYMES” (NATIONAL INSTITUTE OF ADVANCED INDUSTRIAL SCIENCE AND …, priority 2021, published 2024):
Values belong to the molecule of their own block, whether it stands above or below them.

What was measured:
CYP enzyme group = assay: Raman observation of HepaRG hepatocytes, signal of oxidized CYP enzyme group (1370, 1636 cm^-1); type: cell-based, human
Text: (§1) A Raman image of the cell group cultured using the above-mentioned method (1) or (2) was constructed by quantitatively measuring the Raman signal using Raman spectroscopy. Here, the “observation” in the present specification includes both detecting a Raman scattering signal of a cell group and acquiring and observing a Raman image of a cell group. […] Details are explained in each Example.
The culture medium of the cultured cell group was removed, and the cell group was washed twice with PBS. An observation solution (Live Cell Imaging Solution (A14291DJ, Thermo Fisher Scientific)) was added to the washed cell group. The thus-treated cell group was subjected to Raman observation using the Raman microscope (Non Patent Literature 3) described using FIG. 1 (FIG. 6, FIG. 9 to 11, FIG. 13 to FIG. 21, FIG. 23 to FIG. 26).
A 40× water immersion objective lens (CFI Apochromat Lambda S 40XC WI) equipped in a Raman microscope was used to excite the Raman scattered light of the cell group and to detect the Raman scattering signal. The excitation light of the Raman scattered light of the cell group was irradiated by condensing a laser beam with a wavelength of 532 nm into a straight line with a predetermined length (hereinafter referred to as a line) using the water immersion objective lens.
(§2) The flow of detection of Raman scattered light of a cell group that was generated by excitation with excitation light is explained. […] The Raman scattering signal imaged on the slit is then separated by diffraction grating inside the spectroscope and detected by a cooling-type CCD image sensor (PIXIS 400B, Princeton Instruments) used as a photodetector. Raman scattering signals scattered from everywhere on the condensed line can be measured simultaneously and independently by different pixels on the CCD. […] Respective Raman signals were simultaneously detected in an about 133.3 μm region on the direction of the condensed line.

[1] = system: reduced heme b, mainly reduced cytochrome b5; assay: Raman observation of HepaRG hepatocytes, reduced heme b signal (675 cm^-1); type: cell-based, human; conditions: HepaRG induced with 4 μM Rifampicin, inhibitor 10 μM for 5 min (FIG. 24)
Text: as §1
The culture medium of the cultured cell group was removed, and the cell group was washed twice with PBS. An observation solution (Live Cell Imaging Solution (A14291DJ, Thermo Fisher Scientific)) was added to the washed cell group. […]
as §2

[2] = system: CYP3A4, CYP1A2, CYP2B6, and CYP2C9; assay: Induction of gene expression of CYP enzymes by inducing agents; type: cell-based, human; conditions: confirmed by the inventors
CYP3A4 = target: T1, CYP3A4 (Homo sapiens, UniProt P08684); assay: CYP3A4 activity in cell group by luminescence method (P450-Glo, Luciferin-IPA); type: cell-based; conditions: HepaRG pre-induced with 2% DMSO, 2 ng/ml, 48 hr, vs control (FIG. 18)
T1 construct: endogenous in cells; host or cells: HepaRG cells (human liver tumor-derived; BIOPREDIC International)
Protocol: In order to confirm the enzyme activity of CYP3A4, which is particularly expressed in liver cells among the CYP enzymes in the cell group subjected to Raman observation, a test using a luminescence method (hereinafter a luminescence test) was performed in parallel with the Raman observation. The cell is group used in the luminescence test was a cell group separated from the cultured cells used in the below-mentioned Raman observation in (5). That is, the cell group cultured under the same conditions and at the same time as the cultured cells used in Raman observation was used. CYP luminescence test was performed using a commercially available luminescence assay kit (P450-Glo-CYP3A4-Assay-and-Screening-System) according to the provided protocol.
When the Luciferin-IPA substrate is converted to luciferin by CYP3A4, it becomes a substrate for luciferase, producing luminescence proportional to the activity of CYP3A4. […] Luciferase (50 μl) was added dropwise to the dispensed substrate-containing medium, and luminescence was caused using the luciferin-luciferase reaction. Luminescence was detected using a micro-plate reader (Synergy HTX, BioTek). The CYP3A4 activity detected by the present luminescence method is shown in FIG. 7, FIG. 14, FIG. 16, FIG. 18, FIG. 20, and FIG. 22.

T1 sequence (P08684 whole entry): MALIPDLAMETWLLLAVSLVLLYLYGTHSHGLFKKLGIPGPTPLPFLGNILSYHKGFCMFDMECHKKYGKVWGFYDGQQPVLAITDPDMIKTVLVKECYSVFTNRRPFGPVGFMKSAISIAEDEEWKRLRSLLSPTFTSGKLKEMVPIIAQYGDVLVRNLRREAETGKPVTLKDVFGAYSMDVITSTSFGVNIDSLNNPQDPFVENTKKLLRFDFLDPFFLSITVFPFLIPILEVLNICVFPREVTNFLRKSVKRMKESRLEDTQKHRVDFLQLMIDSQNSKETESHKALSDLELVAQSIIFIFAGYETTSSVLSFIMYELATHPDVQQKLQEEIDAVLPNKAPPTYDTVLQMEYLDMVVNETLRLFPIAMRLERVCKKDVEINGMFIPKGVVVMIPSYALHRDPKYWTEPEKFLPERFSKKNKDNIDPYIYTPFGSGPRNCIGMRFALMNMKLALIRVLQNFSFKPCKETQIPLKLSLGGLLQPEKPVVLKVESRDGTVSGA

Raman signal at a wavenumber of 1636 cm^-1 after inhibition (CYP enzyme group; HepaRG induced with 4 μM Rifampicin, inhibitor 10 μM for 5 min (FIG. 23)): reduces | median value of per-cell Raman signal at 1636 cm^-1 after inhibition (CYP enzyme group; HepaRG induced with 4 μM Rifampicin, inhibitor 10 μM for 5 min, vs not administered, statistically significant (FIG. 23)): decreased
Molecule: CC[C@]1(C)C[C@@H](OC(=O)CSc2nnc(N)[nH]2)[C@]2(C)[C@H](C)CC[C@]3(CCC(=O)[C@H]32)[C@@H](C)[C@@H]1O [Azamulin]
Raman signal with a wavenumber of 675 cm^-1 after inhibition [1]: did not increase

gene expression of at least one of CYP3A4, CYP1A2, CYP2B6, CYP2C9 [2]: induce gene expression
Molecule: NC(=O)N1c2ccccc2C=Cc2ccccc21 [Carbamazepine]

gene expression of at least one of CYP3A4, CYP1A2, CYP2B6, CYP2C9 [2]: induce gene expression
Molecule: O=C1NC(=O)C(c2ccccc2)(c2ccccc2)N1 [Phenytoin]

Molecule: Interleukin-6 [IL-6]
activity of CYP3A4 (luminescence test) after suppression (CYP3A4): decreases | CYP activity detected using Raman signals (1636 cm^-1) after suppression (CYP enzyme group; HepaRG pre-induced with 2% DMSO, 2 ng/ml, 48 hr, vs control (FIGS. 18, 19)): downregulation
